Tests used:
T-47D = assay: panel of 60 human tumor cell lines, growth inhibition (Breast Cancer); settings: T-47D
SF-268 = assay: panel of 60 human tumor cell lines, growth inhibition (CNS Cancer); settings: SF-268
SR = assay: panel of 60 human tumor cell lines, growth inhibition (Leukemia)
NCI/ADR-RES = assay: panel of 60 human tumor cell lines, growth inhibition (Ovarian Cancer)
TK-10 = assay: panel of 60 human tumor cell lines, growth inhibition (Renal Cancer); settings: TK-10
CAKI-1 = assay: as above; settings: CAKI-1
HCT-116 = assay: panel of 60 human tumor cell lines, growth inhibition (Colon Cancer); settings: HCT-116
MDA-MB-468 = assay: panel of 60 human tumor cell lines, growth inhibition (Breast Cancer); settings: MDA-MB-468
UO-31 = assay: panel of 60 human tumor cell lines, growth inhibition (Renal Cancer); settings: UO-31
IGROV1 = assay: panel of 60 human tumor cell lines, growth inhibition (Ovarian Cancer); settings: IGROVI
MOLT-4 = assay: panel of 60 human tumor cell lines, growth inhibition (Leukemia); settings: MOLT-4
HCC-2998 = assay: panel of 60 human tumor cell lines, growth inhibition (Colon Cancer); settings: HCC-2998
SW-620 = assay: as above; settings: SW-620
SNB-19 = assay: panel of 60 human tumor cell lines, growth inhibition (CNS Cancer); settings: SNB-19
SNB-75 = assay: as above; settings: SNB-75
HS 578T = assay: panel of 60 human tumor cell lines, growth inhibition (Breast Cancer); settings: HS 578T
A498 = assay: panel of 60 human tumor cell lines, growth inhibition (Renal Cancer); settings: A498
MCF7 = assay: panel of 60 human tumor cell lines, growth inhibition (Breast Cancer); settings: MCF7
786-0 = assay: panel of 60 human tumor cell lines, growth inhibition (Renal Cancer); settings: 786-0

## C=C1C(=O)O[C@H]2[C@H]1CC/C(COC(=O)NC)=C\CC[C@@]1(C)O[C@@H]21 [JVM 2-57]
T-47D; Log10 Concentration −4.0
  Percent Growth: −80%
T-47D; Log10 Concentration −5.0
  Percent Growth: −4%
T-47D; Log10 Concentration −6.0
  Percent Growth: 81%
T-47D; Log10 Concentration −7.0
  Percent Growth: 86%
T-47D; Log10 Concentration −8.0
  Percent Growth: 94%
T-47D; NCI five dose
  GI50: 2320 nM
  TGI: 9.04E−6
SF-268; Log10 Concentration −4.0
  Percent Growth: −73%
SF-268; Log10 Concentration −5.0
  Percent Growth: 66%
SF-268; Log10 Concentration −6.0
  Percent Growth: 92%
SF-268; Log10 Concentration −7.0
  Percent Growth: 90%
SF-268; Log10 Concentration −8.0
  Percent Growth: 92%
SF-268; NCI five dose
  GI50: 13000 nM
  TGI: 2.98E−5
SR; Log10 Concentration −4.0
  Percent Growth: −45%
SR; Log10 Concentration −5.0
  Percent Growth: 4%
SR; Log10 Concentration −6.0
  Percent Growth: 77%
SR; Log10 Concentration −7.0
  Percent Growth: 96%
SR; Log10 Concentration −8.0
  Percent Growth: 101%
SR; NCI five dose
  GI50: 2330 nM
  TGI: 1.21E−5
NCI/ADR-RES; Log10 Concentration −4.0
  Percent Growth: −27%
NCI/ADR-RES; Log10 Concentration −5.0
  Percent Growth: 60%
NCI/ADR-RES; Log10 Concentration −6.0
  Percent Growth: 99%
NCI/ADR-RES; Log10 Concentration −7.0
  Percent Growth: 101%
NCI/ADR-RES; Log10 Concentration −8.0
  Percent Growth: 95%
NCI/ADR-RES; NCI five dose
  GI50: 13100 nM
  TGI: 4.89E−5
TK-10; Log10 Concentration −4.0
  Percent Growth: −95%
TK-10; Log10 Concentration −5.0
  Percent Growth: −5%
TK-10; Log10 Concentration −6.0
  Percent Growth: 96%
TK-10; Log10 Concentration −7.0
  Percent Growth: 98%
TK-10; Log10 Concentration −8.0
  Percent Growth: 94%
TK-10; NCI five dose
  GI50: 2860 nM
  TGI: 8.97E−6
CAKI-1; Log10 Concentration −4.0
  Percent Growth: −97%
CAKI-1; Log10 Concentration −5.0
  Percent Growth: 10%
CAKI-1; Log10 Concentration −6.0
  Percent Growth: 82%
CAKI-1; Log10 Concentration −7.0
  Percent Growth: 89%
CAKI-1; Log10 Concentration −8.0
  Percent Growth: 96%
CAKI-1; NCI five dose
  GI50: 2780 nM
  TGI: 1.25E−5
HCT-116; Log10 Concentration −4.0
  Percent Growth: −98%
HCT-116; Log10 Concentration −5.0
  Percent Growth: 3%
HCT-116; Log10 Concentration −6.0
  Percent Growth: 88%
HCT-116; Log10 Concentration −7.0
  Percent Growth: 93%
HCT-116; Log10 Concentration −8.0
  Percent Growth: 102%
HCT-116; NCI five dose
  GI50: 2800 nM
  TGI: 1.07E−5
MDA-MB-468; Log10 Concentration −4.0
  Percent Growth: −65%
MDA-MB-468; Log10 Concentration −5.0
  Percent Growth: −18%
MDA-MB-468; Log10 Concentration −6.0
  Percent Growth: 58%
MDA-MB-468; Log10 Concentration −7.0
  Percent Growth: 99%
MDA-MB-468; Log10 Concentration −8.0
  Percent Growth: 100%
MDA-MB-468; NCI five dose
  GI50: 1260 nM
  TGI: 5.83E−6
UO-31; Log10 Concentration −4.0
  Percent Growth: −93%
UO-31; Log10 Concentration −5.0
  Percent Growth: 7%
UO-31; Log10 Concentration −6.0
  Percent Growth: 82%
UO-31; Log10 Concentration −7.0
  Percent Growth: 88%
UO-31; Log10 Concentration −8.0
  Percent Growth: 84%
UO-31; NCI five dose
  GI50: 2630 nM
  TGI: 1.16E−5
IGROV1; Log10 Concentration −4.0
  Percent Growth: −57%
IGROV1; Log10 Concentration −5.0
  Percent Growth: 8%
IGROV1; Log10 Concentration −6.0
  Percent Growth: 102%
IGROV1; Log10 Concentration −7.0
  Percent Growth: 101%
IGROV1; Log10 Concentration −8.0
  Percent Growth: 100%
IGROV1; NCI five dose
  GI50: 3580 nM
  TGI: 1.32E−5
MOLT-4; Log10 Concentration −4.0
  Percent Growth: −39%
MOLT-4; Log10 Concentration −5.0
  Percent Growth: 8%
MOLT-4; Log10 Concentration −6.0
  Percent Growth: 98%
MOLT-4; Log10 Concentration −7.0
  Percent Growth: 90%
MOLT-4; Log10 Concentration −8.0
  Percent Growth: 97%
MOLT-4; NCI five dose
  GI50: 3400 nM
  TGI: 1.49E−5
HCC-2998; Log10 Concentration −4.0
  Percent Growth: −81%
HCC-2998; Log10 Concentration −5.0
  Percent Growth: 65%
HCC-2998; Log10 Concentration −6.0
  Percent Growth: 107%
HCC-2998; Log10 Concentration −7.0
  Percent Growth: 91%
HCC-2998; Log10 Concentration −8.0
  Percent Growth: 94%
HCC-2998; NCI five dose
  GI50: 12700 nM
  TGI: 2.80E−5
SW-620; Log10 Concentration −4.0
  Percent Growth: −80%
SW-620; Log10 Concentration −5.0
  Percent Growth: 6%
SW-620; Log10 Concentration −6.0
  Percent Growth: 65%
SW-620; Log10 Concentration −7.0
  Percent Growth: 99%
SW-620; Log10 Concentration −8.0
  Percent Growth: 98%
SW-620; NCI five dose
  GI50: 1800 nM
  TGI: 1.16E−5
SNB-19; Log10 Concentration −4.0
  Percent Growth: −38%
SNB-19; Log10 Concentration −5.0
  Percent Growth: 74%
SNB-19; Log10 Concentration −6.0
  Percent Growth: 92%
SNB-19; Log10 Concentration −7.0
  Percent Growth: 95%
SNB-19; Log10 Concentration −8.0
  Percent Growth: 94%
SNB-19; NCI five dose
  GI50: 16400 nM
  TGI: 4.59E−5
SNB-75; Log10 Concentration −4.0
  Percent Growth: −41%
SNB-75; Log10 Concentration −5.0
  Percent Growth: 55%
SNB-75; Log10 Concentration −6.0
  Percent Growth: 78%
SNB-75; Log10 Concentration −7.0
  Percent Growth: 76%
SNB-75; Log10 Concentration −8.0
  Percent Growth: 83%
SNB-75; NCI five dose
  GI50: 11200 nM
  TGI: 3.72E−5
HS 578T; Log10 Concentration −4.0
  Percent Growth: 7%
HS 578T; Log10 Concentration −5.0
  Percent Growth: 65%
HS 578T; Log10 Concentration −6.0
  Percent Growth: 87%
HS 578T; Log10 Concentration −7.0
  Percent Growth: 92%
HS 578T; Log10 Concentration −8.0
  Percent Growth: 91%
HS 578T; NCI five dose
  GI50: 18400 nM
  TGI: >1.00E−4
A498; Log10 Concentration −4.0
  Percent Growth: −90%
A498; Log10 Concentration −5.0
  Percent Growth: 32%
A498; Log10 Concentration −6.0
  Percent Growth: 66%
A498; Log10 Concentration −7.0
  Percent Growth: 70%
A498; Log10 Concentration −8.0
  Percent Growth: 71%
A498; NCI five dose
  GI50: 2970 nM
  TGI: 1.84E−5
MCF7; Log10 Concentration −4.0
  Percent Growth: −75%
MCF7; Log10 Concentration −5.0
  Percent Growth: 4%
MCF7; Log10 Concentration −6.0
  Percent Growth: 83%
MCF7; Log10 Concentration −7.0
  Percent Growth: 88%
MCF7; Log10 Concentration −8.0
  Percent Growth: 94%
MCF7; NCI five dose
  GI50: 2610 nM
  TGI: 1.11E−5
786-0; Log10 Concentration −4.0
  Percent Growth: −88%
786-0; Log10 Concentration −5.0
  Percent Growth: 38%
786-0; Log10 Concentration −6.0
  Percent Growth: 93%
786-0; Log10 Concentration −7.0
  Percent Growth: 90%
786-0; Log10 Concentration −8.0
  Percent Growth: 96%
786-0; NCI five dose
  GI50: 5940 nM
  TGI: 1.99E−5
